Results: patent US20120040951A1, “HETEROARYL COMPOUNDS USEFUL AS RAF KINASE INHIBITORS” (priority 2008, published 2012)

Tests used:
[1] = test system: phospho-ERK in melanoma derived WM-266-4 cells; assay: Mechanistic cellular assay for Raf kinase activity (phospho-ERK, Bio-Plex); assay type: cell-based; conditions: Homo sapiens, treated 1-2 hr at 37° C., serum free medium, read-out: pERK EC50
How it was run: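 WM-266-4 melanoma cells (wild-type/V600D BRaf) grown overnight in 10% FBS RPMI, then treated 1–2 h at 37 °C in serum-free RPMI with eight 3-fold dilutions of compound (from 5 mM DMSO stock, 1000× dilution). Lysate phospho-ERK1,2 quantified by Bio-Plex bead immunoassay.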

[2] = target: V599E Raf (Homo sapiens, UniProt P15056, V600E); assay: Biochemical FRET assay, mutant Raf (phosphorylation of MEK); conditions: 0.125 nM V599E Raf, 100 nM biotin-MEK, 25 μM ATP, read-out: Raf (mut) inhibition
V599E Raf, sequence (P15056 whole entry V600E): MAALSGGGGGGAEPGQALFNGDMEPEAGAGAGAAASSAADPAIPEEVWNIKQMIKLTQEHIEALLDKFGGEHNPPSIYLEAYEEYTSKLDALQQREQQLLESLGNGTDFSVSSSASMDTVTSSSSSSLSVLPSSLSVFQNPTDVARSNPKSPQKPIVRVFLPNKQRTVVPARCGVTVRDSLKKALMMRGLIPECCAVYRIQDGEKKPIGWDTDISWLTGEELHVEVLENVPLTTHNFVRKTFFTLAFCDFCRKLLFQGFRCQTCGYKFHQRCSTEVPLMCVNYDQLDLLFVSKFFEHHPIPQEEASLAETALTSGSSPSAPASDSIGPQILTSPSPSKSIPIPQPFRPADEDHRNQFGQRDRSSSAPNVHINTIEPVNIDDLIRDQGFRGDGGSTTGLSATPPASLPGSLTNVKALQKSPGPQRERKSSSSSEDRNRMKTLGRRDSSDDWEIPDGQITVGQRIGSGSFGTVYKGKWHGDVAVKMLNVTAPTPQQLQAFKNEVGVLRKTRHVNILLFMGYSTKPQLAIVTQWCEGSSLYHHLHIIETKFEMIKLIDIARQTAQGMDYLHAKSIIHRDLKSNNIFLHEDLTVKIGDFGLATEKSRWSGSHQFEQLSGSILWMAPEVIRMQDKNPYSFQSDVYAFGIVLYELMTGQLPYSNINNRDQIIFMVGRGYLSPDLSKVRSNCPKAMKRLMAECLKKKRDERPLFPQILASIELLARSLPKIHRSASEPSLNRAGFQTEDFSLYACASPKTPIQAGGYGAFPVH
How it was run: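 V599E Raf (0.125 nM) preincubated 20 min with inhibitor and 100 nM biotin-MEK in HEPES pH 7.4 with Mg2+/Mn2+, then reacted with 25 μM ATP for 60 min at room temperature. EDTA-stopped; phospho-MEK1/2 (Ser217/221) detected by Eu/APC TR-FRET after 90 min.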

| SMILES | EC50 [1] [µM] | IC50 [2] [µM] |
| --- | --- | --- |
| COC(=O)c1cc(Nc2ncc(C(C)NC(=O)c3cc4c(cn3)ncn4C)s2)cc(C(C)(C)C)c1 (stereo not shown) [Example 351] | 0.1 to 1 | ≤ 0.1 |
| CC(NC(=O)c1cc2c(cn1)ncn2C)c1cnc(Nc2cc(C(=O)O)cc(C(C)(C)C)c2)s1 (stereo not shown) [Example 352] | 1 to 10 | 0.1 to 1 |
| CC(NC(=O)c1cc2c(cn1)ncn2C)c1cnc(Nc2cc(C(N)=O)cc(C(C)(C)C)c2)s1 (stereo not shown) [Example 353] | 1 to 10 | ≤ 0.1 |
| CC(NC(=O)c1cc2c(cn1)ncn2CC(=O)O)c1cnc(Nc2ccc(C(F)(F)F)cc2)s1 (stereo not shown) [Example 354] | 1 to 10 | ≤ 0.1 |
| CNC(=O)Cn1cnc2cnc(C(=O)NC(C)c3cnc(Nc4ccc(C(F)(F)F)cc4)s3)cc21 (stereo not shown) [Example 356] | 0.1 to 1 | ≤ 0.1 |
